Assay results from patent US20250143995A1, “ACTIVE AGENT MODULATING THE ACTIVITY OF AN ION CHANNEL FOR USE IN REGULATION OF SKIN PIGMENTATION” (Cutaneon - Skin & Hair Innovations GmbH, priority 2022, published 2025).

How the values were obtained:
Type in all cases: cell-based
human skin organ culture [1] = assay: Epidermal melanin by Fontana Masson histochemistry in ex vivo human skin organ culture
Description: (§1) Samples of human abdominal, temporal, and occipital skin were obtained with written patient consent and under ethical approval from healthy adult human subjects during elective plastic surgery performed for cosmetic reasons. Full-thickness human skin samples were prepared as 4-6 mm punches, placed on filter paper, and cultured at the air-liquid interphase under serum-free conditions in William's E medium supplemented only with insulin, hydrocortisone and L-glutamine, as described previously.
For topical application of 2,5-dimethylpyrazine (DMP) (Sigma), a TRPM5 activator, a stock was prepared in ethanol and dissolved at 37° C. at a final concentration of 12.5 mM in a 50% v/v solution of Isopropanol in PBS containing 1 g/mL of Polyethylene glycol 6000. For topical application of triphenylphosphine oxide (TPPO) (Sigma), and TRPM5 inhibitor, a stock was prepared in ethanol and dissolved at 37° C. at a final concentration of 1.5 mM in a 50% v/v solution of Isopropanol in PBS containing 1 g/mL of Polyethylene glycol 6000. […]
(§2) Images were then obtained with a digital microscope (Keyence). Quantitative histomorphometric analysis was performed by assessing the relative intensity and the area of melanin stain in standardized reference areas with ImageJ (NIH; Bethesda, MD, USA). Briefly, for each parameter evaluated, multiple non-consecutive skin sections (at least 280 μm apart from each other) per punch biopsy were stained. Two skin punch biopsies were analyzed per experimental group unless indicated otherwise. The melanin content was then calculated based on the product of the fraction of area occupied by melanin and the mean shade of gray of the melanin, as described in detail elsewhere. […]
For Fontana Masson stain, ethanol/acetic acid-fixed human skin/HF frozen sections were rinsed in two and three washes of Tris-buffered saline and distilled water, respectively. […] Image acquisition and quantitative histomorphometric analysis were performed similar to as described for the Warthin-Starry technique.

gp100 = assay: gp100-specific immunoreactivity in ex vivo human skin organ culture; conditions: after 3 days
Description: as §1, with “previously. […]” for “previously.”
as §2

tyrosinase = assay: In situ tyrosinase activity in ex vivo human skin organ culture; conditions: after 3 days
Description: as §1, with “previously. […]” for “previously.”
as §2

human skin organ culture [2] = assay: Epidermal melanin by Warthin-Starry histochemistry in ex vivo human skin organ culture; conditions: topical DMP 12.5 mM
Description: as §1, with “previously. […]” for “previously.”
as §2

[3] = topical DMP 12.5 mM, compared to vehicle
[4] = TPPO 1.5 mM combined with DMP 12.5 mM, topical

SMILES | melanin content in the basal layer and in the suprabasal layers (Fontana-Masson technique) (human skin organ culture [1]; topical DMP 12.5 mM, 3 days) | epidermal melanin content (Fontana-Masson technique) (human skin organ culture [1]; topical DMP 12.5 mM, after 3 days, compared to vehicle) | intensity level of gp100-specific IR in the basal epidermal layers (gp100; [3]) | intensity level of tyrosinase activity in the basal epidermal layers (tyrosinase; [3]) | melanin content in the basal layer and in the suprabasal layers (Warthin-Starry technique) (human skin organ culture [2]; 3 days) | epidermal melanin content (Warthin-Starry technique) (human skin organ culture [2]; after 3 days, compared to vehicle) | effect on the DMP-induced increase of epidermal melanin content (Fontana-Masson technique) (human skin organ culture [1]; TPPO 1.5 mM combined with DMP 12.5 mM, topical, after 3 days) | effect on the DMP-induced increase of gp100-specific IR in the basal epidermal layers (gp100; [4]) | effect on the DMP-induced increase of tyrosinase activity in the basal epidermal layers (tyrosinase; [4])
Cc1cnc(C)cn1 [DMP, 2,5-dimethylpyrazine] | increased | markedly increases | markedly increases | markedly increases | increased | markedly increases |  |  | 
O=P(c1ccccc1)(c1ccccc1)c1ccccc1 [TPPO, triphenylphosphine oxide] |  |  |  |  |  |  | prevented the effect | prevented the effect | prevented the effect
